Results on 3 compounds are retold here after US4246262A, “Derivatives of amidinopenicillanic acid” (Leo Pharmaceutical Products, Ltd. A/S, priority 1977, dated 1981).

What all share (assay): antibacterial activity, IC50 (concentration required for 50 percent inhibition)
Common to all, as to type: cell-based

The subject of one assay is E.coli HA 2 Leo strain. The settings on record: Escherichia coli, HA2LEOSTRAIN
The text has this: (§1) In the table below, the antibacterial activity of the compound of Example 2 is compared to that of the known compounds Ampicillin and Mecillinam.
(§2) In the table IC50 means the concentration required for 50 percent inhibition.

For another assay, the system named is E.coli W3110 (RTEM). The following applies: Escherichia coli.
Text: as §1, §2

For assay [1], the system named is Salmonella cholerasuis NCTC 5735. The following applies: NCTC5735.
Text: as §1, §2

In assay [2] the test system is Salmonella typhimurium NCTC 5710. The following applies: Salmonella enterica.
Text: as §1, §2

Assay [3] deals with Pseudomonas aeruginosa BA 2 Leo strain. The following applies: BA2LEOSTRAIN
Text: as §1, §2

The test system of assay [4] is Pseudomonas aeruginosa PS 18s. The following applies: PS18S.
Text: as §1, §2

Assay [5] has as its system Enterobacter cloacae P 99. The following applies: P99.
Text: as §1, §2

Assay [6] has as its system Klebsiella pneumoniae ATCC 10273. The following applies: ATCC10273.
Text: as §1, §2

Values after ≈ are worked out from the molar mass of the structure shown. Where a name gives a salt, the structure may show the parent alone. Bounds are passed on as bounds.

As to `CC1(C)S[C@@H]2[C@H](NC(=O)[C@H](N)c3ccccc3)C(=O)N2[C@H]1C(=O)O` [Ampicillin], the half-maximal inhibitory concentration (IC50) (as a rule, the midpoint of a concentration-inhibition curve) was 1.3 µg/mL (≈ 3.72 µM) with E.coli HA 2 Leo strain; more than 100 µg/mL in the assay on E.coli W3110 (RTEM); 0.25 µg/mL (≈ 0.715 µM) in assay [1]; 0.4 µg/mL (≈ 1.14 µM) in assay [2]; more than 100 µg/mL in assay [3]; 50 µg/mL (≈ 143 µM) in assay [4]. Moreover, the IC50 was more than 100 µg/mL in assay [5] and 79 µg/mL (≈ 226 µM) in assay [6].

On to `CC1(C)S[C@@H]2[C@H](N=CN3CCC(CSCCN)CC3)C(=O)N2[C@H]1C(=O)O` [Example 2, 6-[4'-(2"-Aminoethylthiomethyl)-piperidino-methyleneamino]-penicillanic acid hydrochloride], for which the IC50 in the assay with E.coli HA 2 Leo strain is 0.05 µg/mL; in the assay on E.coli W3110 (RTEM) it was 1.6 µg/mL; in assay [1], 0.05 µg/mL; in assay [2] it was 0.05 µg/mL; in assay [3], 50 µg/mL; in assay [4] it was 40 µg/mL. Further, the IC50 came out at 0.063 µg/mL in assay [5] and 0.32 µg/mL in assay [6].

`CC1(C)S[C@@H]2[C@H](/N=C/N3CCCCCC3)C(=O)N2[C@H]1C(=O)O` [Mecillinam]: the IC50 is 0.016 µg/mL (≈ 0.0492 µM) with E.coli HA 2 Leo strain; 2 µg/mL (≈ 6.15 µM) with E.coli W3110 (RTEM); 0.05 µg/mL (≈ 0.154 µM) in assay [1]; 0.05 µg/mL (≈ 0.154 µM) in assay [2]; more than 100 µg/mL in assay [3]; more than 100 µg/mL in assay [4]. Besides, the IC50 in assay [5] was 0.1 µg/mL (≈ 0.307 µM); in assay [6], approximately 1 µg/mL (≈ 3.07 µM).
